Target: T1, human Kir2.1 (Homo sapiens, UniProt P63252)
T1 construct: gene KCNJ2; tags kept
T1 sequence (P63252 1-427): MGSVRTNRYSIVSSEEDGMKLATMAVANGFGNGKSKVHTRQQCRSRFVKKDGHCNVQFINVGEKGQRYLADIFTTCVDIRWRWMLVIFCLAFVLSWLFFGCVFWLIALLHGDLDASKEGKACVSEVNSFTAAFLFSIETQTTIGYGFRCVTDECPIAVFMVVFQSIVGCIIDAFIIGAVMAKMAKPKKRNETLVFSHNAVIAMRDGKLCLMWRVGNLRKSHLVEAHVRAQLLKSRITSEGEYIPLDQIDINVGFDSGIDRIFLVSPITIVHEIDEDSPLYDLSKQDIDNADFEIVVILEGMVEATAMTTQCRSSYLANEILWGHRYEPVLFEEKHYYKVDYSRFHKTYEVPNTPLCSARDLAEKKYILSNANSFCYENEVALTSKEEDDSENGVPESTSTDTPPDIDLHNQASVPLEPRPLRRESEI
Experiment: […]+ uptake into proteoliposomes
Format: biochemical

% reduction of channel activity: ~ 45%
Structure (SMILES): CC(C)CCC[C@@H](C)[C@H]1CC[C@H]2[C@@H]3CC=C4C[C@@H](O)CC[C@]4(C)[C@H]3CC[C@]12C [cholesterol]

From paper PMC3084843 (PLoS ONE, 2011)
